Results on 10 molecules are retold here after ChEMBL document CHEMBL1121952, “Directional probes of the hydrophobic component of the aromatic ring binding site of norepinephrine N-methyltransferase” (J Med Chem, 1982).

The target of data set [1] is T1, Phenylethanolamine N-methyltransferase (Bos taurus, UniProt P10938).
T1 sequence (P10938 whole entry): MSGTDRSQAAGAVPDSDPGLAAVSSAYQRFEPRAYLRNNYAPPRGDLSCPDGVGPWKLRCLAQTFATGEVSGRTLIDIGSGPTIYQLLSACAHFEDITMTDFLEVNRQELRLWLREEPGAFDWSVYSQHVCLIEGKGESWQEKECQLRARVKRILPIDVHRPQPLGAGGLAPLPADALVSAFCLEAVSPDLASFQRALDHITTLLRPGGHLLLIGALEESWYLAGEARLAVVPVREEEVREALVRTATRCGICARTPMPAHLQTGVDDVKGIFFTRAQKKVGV
As to the kind of experiment: (§1) The inhibitory constant(Ki) value for Norepinephrine N-methyl-transferase was calculated.

The nature of data set [2]: Vmax/Km x100 value of the compound. It counts as ADME.
Compound in data set [3]: NCC(O)c1cccc2ccccc12
The data set is described as §1.

Compound in data set [4]: NCC(O)c1cccc(-c2ccccc2)c1
Described as §1.

Compound in data set [5]: NCC(O)c1ccc(-c2ccccc2)cc1
Described as §1.

Compound in data set [6]: NCC(O)c1ccc2ccccc2c1
The description is as §1.

Bounds are passed on as bounds.

By Ki is commonly meant the dissociation constant of the complex between target and ligand, obtained from inhibition or displacement. With `CC(N)c1ccc(-c2ccccc2)cc1` (stereo not drawn), in data set [1], the Ki was 737 µM. For the molecule `CC(N)Cc1ccc(-c2ccccc2)cc1` (stereo not drawn), the inhibition constant Ki in data set [1] is 262 µM. On the same count and under the same terms, the same measure for `CC(N)Cc1cccc(-c2ccccc2)c1` (stereo not drawn): > 2000 µM. Regarding `NCC(O)c1ccc(-c2ccccc2)cc1` (stereo not drawn), the “Vmax / Kmax100” value in data set [2] turned out to be 5.44. On the same count and under the same terms, the same measure for `NCC(O)c1cccc(-c2ccccc2)c1` (stereo not drawn): 1.42.

In the case of `CC(N)c1cccc(-c2ccccc2)c1` (stereo not drawn), the Ki in data set [1] is 89 µM. Consider `NC[C@@H](O)c1ccccc1`, for which the “Vmax / Kmax100” value in data set [2] is recorded as 1.62. Same read-out and setting: the same measure for `NCC(O)c1cccc2ccccc12` (stereo not drawn): 1.29. On the same count and under the same terms, the same measure for `NCC(O)c1ccc2ccccc2c1` (stereo not drawn): 5.6.

B1: Phenylethanolamine N-methyltransferase (Bos taurus), P10938 (protein)
chain: MSGTDRSQAAGAVPDSDPGLAAVSSAYQRFEPRAYLRNNYAPPRGDLSCPDGVGPWKLRCLAQTFATGEVSGRTLIDIGSGPTIYQLLSACAHFEDITMTDFLEVNRQELRLWLREEPGAFDWSVYSQHVCLIEGKGESWQEKECQLRARVKRILPIDVHRPQPLGAGGLAPLPADALVSAFCLEAVSPDLASFQRALDHITTLLRPGGHLLLIGALEESWYLAGEARLAVVPVREEEVREALVRTATRCGICARTPMPAHLQTGVDDVKGIFFTRAQKKVGV
Broadly, the Km is the concentration of substrate that gives half-maximal velocity. Consider B1, for which the Km is 132 µM in data set [3], 656 µM in data set [4], 64 µM in data set [5] and 20 µM in data set [6].
